Laboratory results as given in US20060014812A1, “Use of estrogen related receptor-modulating aryl ethers” (priority 2004, published 2006).

target: T1, ligand binding domain of ERR-α (aa 183-424) (Homo sapiens, UniProt P11474); assay: ThermoFluor thermal-shift binding affinity screen against ERR-α ligand binding domain; settings: 100 μM test compound, 0.1 mg/mL ERR-α, pH 7.6, Kd estimated from melting temperature shift at reference temperature, read-out: TF Kd
T1 construct: His tag (N); thrombin cleavage site (N); made in house; host or cells: E. coli BL21(DE3+)
T1 sequence (P11474 183-423 limits assumed): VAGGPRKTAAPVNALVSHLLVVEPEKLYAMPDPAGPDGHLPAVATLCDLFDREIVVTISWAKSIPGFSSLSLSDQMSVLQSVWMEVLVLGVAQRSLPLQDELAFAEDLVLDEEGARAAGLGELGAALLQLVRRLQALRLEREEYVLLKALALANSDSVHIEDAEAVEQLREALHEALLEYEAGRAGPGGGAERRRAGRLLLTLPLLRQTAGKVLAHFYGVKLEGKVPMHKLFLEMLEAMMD
Description: The ligand binding domain of ERR-α (aa 183-424) was subcloned in frame with the N-terminal His tag and the cleavable thrombin site in pET28. The protein was expressed in BL21(DE3^+) following induction with 100 μM IPTG at 16° C. Cells were harvested after 16 hours (h) of induction and lysed in 20 mM Tris pH 7.5, 500 mM NaCl, 5 mM imidazole, 5% glycerol, protease inhibitor cocktail (-EDTA) and 2 mM β-ME. Insoluble material was removed by centrifugation at 40,000×g for 1 hr. Clarified homogenate was applied on a Ni-NTA column and after applying an imidazole gradient the protein was eluted. The protein was further purified on size exclusion chromatography to an apparent homogeneity of 95% as judged by SDS-PAGE chromatography.
Binding affinities of compounds were determined by screening against the ligand binding domain of ERR-α using ThermoFluor® technology (U.S. Pat. No. 6,020,141 and U.S. Pat. No. 6,036,920, and Journal of Biomolecular Screening 6 (6), […], pgs 429-440). Assay plates were prepared by dispensing 2 μL of a protein-dye solution and 2 μL of the test compound in a 384-well plate. The conditions used in the screen were: 0.1 mg/mL ERR-α, 25 mM Na-phosphate buffer at pH 7.6, 200 mM NaCl, 10% glycerol, 16 μM ANS, 2% DMSO and the final concentration of test compound was 100 μM. Finally 1 μL of mineral oil was dispensed on top to prevent evaporation during the high throughput screen (HTS). ThermoFluor® is an HTS assay that measures protein unfolding based on fluorescence detection of the denatured form of the protein. The reporter for the protein unfolding event is the environmentally sensitive dye ANS that is incorporated in the screening buffer. During a typical experiment the 384-well plate is heated at a ramping rate of 1° C./min and the thermal unfolding of the protein is monitored at 1° C. intervals by measuring fluorescence changes detected through a CCD camera. Captured images are integrated and a melting curve is generated that relates fluorescence to fraction of unfolded protein as a function of temperature. For the ERR-α screen, data were collected from 30 to 80° C. at 1° C. intervals and the protein melted under the screening conditions with a characteristic melting temperature, Tm, of 52.1° C. Hits were identified from the screen by measuring an increase in the melting temperature of the protein.
In order to estimate binding affinities, it was taken into account that the oligomeric state of ERR-α, which is a dimer (N2), and that of a single ligand (Lf) can interact per monomer subunit with equal affinity. The melting curve for such a system is described by the following three equilibria: [formula] The first equilibrium describes the denaturation of ERR-α dimers; the second equilibrium describes the dissociation of the first ligand from the single ligand occupied ERR-α dimers (N2L); and the third equilibrium describes the dissociation of the second ligand from the fully occupied ERR-α dimers (N2L2).
Following the derivations of Brandts and Lin (Biochemistry, 29, 6967, 1990) the dissociation constants for the ligands (Kd1^t^m) can be determined at T=Tm for any ligand concentration Lt by solving numerically the conservation of mass equations: [formula] and Ku is in the unfolding equilibrium constant for ERR-α dimers that is calculated from the melting curve of the protein in the absence of ligand as described by Pantoliano et al. (J. Biomolecular Screening, 6, 429, 2001) and Bowie & Sauer (Biochemistry, 28, 7139, 1989).
To compare dissociation constants at a common reference temperature, Tref, the following equation was used: [formula] where • Kd^ref=is the dissociation constant of the ligand at a reference temperature Tref • ΔHb^ref=is the binding enthalpy of the ligand to the protein at a reference temperature Tref. […]

Structure (SMILES)	Kd
COc1ccc(Oc2ccc(C=C3SC(N)=NC3=O)cc2)cc1 [Example 9, 2-Amino-5-[4-(4-methoxy-phenoxy)-benzylidene]-thiazol-4-one]	24.7 µM
COc1cc(/C=C2\SC(=O)NC2=O)ccc1Oc1ccc(C(F)(F)F)cc1[N+](=O)[O-] [Example 10, 5-[3-Methoxy-4-(2-nitro-4-trifluoromethyl-phenoxy)-benzylidene]-thiazolidine-2,4-dione]	0.234 µM
COc1cc(/C=C2\SC(=O)NC2=O)cc(Cl)c1Oc1ccc(C(F)(F)F)cc1[N+](=O)[O-] [Example 13, 5-[3-Chloro-5-methoxy-4-(2-nitro-4-trifluoromethyl-phenoxy)-benzylidene]-thiazolidine-2,4-dione]	79.5 µM
O=C1NC(=O)/C(=C/c2ccc(Oc3ccc(C(F)(F)F)cc3[N+](=O)[O-])cc2)S1 [Example 14, 5-[4-(2-Nitro-4-trifluoromethyl-phenoxy)-benzylidene]-thiazolidine-2,4-dione]	0.588 µM
COc1ccc(Oc2ccc(/C=C3\SC(=O)NC3=O)cc2)cc1 [Example 16, 5-[4-(4-Methoxy-phenoxy)-benzylidene]-thiazolidine-2,4-dione]	3.53 µM
CCOC(=O)CN1C(=O)S/C(=C\c2ccc(Oc3ccc(C(F)(F)F)cc3[N+](=O)[O-])c(OC)c2)C1=O [Example 17, {5-[3-Methoxy-4-(2-nitro-4-trifluoromethyl-phenoxy)-benzylidene]-2,4-dioxo-thiazolidin-3-yl}-acetic acid ethyl ester]	4.86 µM
COC(=O)c1ccc(Oc2ccc(/C=C3\SC(=O)NC3=O)cc2OC)c([N+](=O)[O-])c1 [Example 18, 4-[4-(2,4-Dioxo-thiazolidin-5-ylidenemethyl)-2-methoxy-phenoxy]-3-nitro-benzoic acid methyl ester]	0.0692 µM
CCCCN1C(=O)S/C(=C\c2ccc(Oc3ccc(C(F)(F)F)cc3[N+](=O)[O-])c(OC)c2)C1=O [Example 19, 3-Butyl-5-[3-methoxy-4-(2-nitro-4-trifluoromethyl-phenoxy)-benzylidene]-thiazolidine-2,4-dione]	2.7 µM
O=C1NC(=O)/C(=C/c2ccc(Oc3ccccc3)cc2)S1 [Example 20, 5-(4-Phenoxy-benzylidene)-thiazolidine-2,4-dione]	9.5 µM
O=C1NC(=O)/C(=C\c2cccc(Oc3cccc(Cl)c3)c2)S1 [Example 21, 5-[3-(3-Chloro-phenoxy)-benzylidene]-thiazolidine-2,4-dione]	> 200 µM
COc1cc(C=C(C#N)C#N)ccc1Oc1ccc(C(F)(F)F)cc1[N+](=O)[O-] [Example 22, 2-[3-Methoxy-4-(2-nitro-4-trifluoromethyl-phenoxy)-benzylidene]-malononitrile]	5.06 µM
COc1cc(/C=C(\C#N)S(=O)(=O)c2ccccc2)ccc1Oc1ccc(C(F)(F)F)cc1[N+](=O)[O-] [Example 23, 2-Benzenesulfonyl-3-[3-methoxy-4-(2-nitro-4-trifluoromethyl-phenoxy)-phenyl]-acrylonitrile]	14.6 µM
CCOC(=O)/C(C#N)=C/c1ccc(Oc2ccc(C(F)(F)F)cc2[N+](=O)[O-])c(OC)c1 [Example 24, 2-Cyano-3-[3-methoxy-4-(2-nitro-4-trifluoromethyl-phenoxy)-phenyl]-acrylic acid ethyl ester]	2.54 µM
COc1cc(/C=C(\C#N)c2cccs2)ccc1Oc1ccc(C(F)(F)F)cc1[N+](=O)[O-] [Example 25, 3-[3-Methoxy4-(2-nitro4-trifluoromethyl-phenoxy)-phenyl]-2-thiophen-2-yl-acrylonitrile]	7.17 µM
COc1cc(/C=C(\C#N)c2nc3ccccc3[nH]2)ccc1Oc1ccc(C(F)(F)F)cc1[N+](=O)[O-] [Example 26, 2-(1H-Benzoimidazol-2-yl)-3-[3-methoxy-4-(2-nitro-4-trifluoromethyl-phenoxy)-phenyl]-acrylonitrile]	15.2 µM
COc1cc(/C=C(\C#N)c2ccccn2)ccc1Oc1ccc(C(F)(F)F)cc1[N+](=O)[O-] [Example 27, 3-[3-Methoxy-4-(2-nitro-4-trifluoromethyl-phenoxy)-phenyl]-2-pyridin-2-yl-acrylonitrile]	1.38 µM
COc1cc(/C=C(\C#N)C(=O)c2ccccc2)ccc1Oc1ccc(C(F)(F)F)cc1[N+](=O)[O-] [Example 28, 2-Benzoyl-3-[3-methoxy-4-(2-nitro-4-trifluoromethyl-phenoxy)-phenyl]-acrylonitrile]	0.608 µM
COc1cc(/C=C(/C(=O)c2cccs2)C(=O)C(F)(F)F)ccc1Oc1ccc(C(F)(F)F)cc1[N+](=O)[O-] [Example 29, 4,4,4-Trifluoro-2-[3-methoxy-4-(2-nitro-4-trifluoromethyl-phenoxy)-benzylidene]-1-thiophen-2-yl-butane-1,3-dione]	15.4 µM
COc1cc(/C=C2\C(=O)N(c3ccccc3)N=C2C)ccc1Oc1ccc(C(F)(F)F)cc1[N+](=O)[O-] [Example 30, 4-[3-Methoxy-4-(2-nitro-4-trifluoromethyl-phenoxy)-benzylidene]-5-methyl-2-phenyl-2,4-dihydro-pyrazol-3-one]	1.16 µM
COc1cc(/C=C2/NC(=S)NC2=O)ccc1Oc1ccc(C(F)(F)F)cc1[N+](=O)[O-] [Example 31, 5-[3-4-(2-nitro-4-trifluoromethyl-phenoxy)-benzylidene]-2-thioxo-imidazolidin-4 4-one]	2.2 µM
COc1cc(/C=C2\C(=O)ON=C2c2ccccc2)ccc1Oc1ccc(C(F)(F)F)cc1[N+](=O)[O-] [Example 32, 4-[3-4-(2-nitro-4-trifluoromethyl-phenoxy)-benzylidene]-3-phenyl-4H-isoxazol-5-one]	0.795 µM
COc1cc(C=C2C(=O)c3ccccc3C2=O)ccc1Oc1ccc(C(F)(F)F)cc1[N+](=O)[O-] [Example 33, 2-[3-4-(2-nitro-4-trifluoromethyl-phenoxy)-benzylidene]-indan-1,3-dione]	0.473 µM
COC(=O)c1ccc(Oc2ccc(C=C3C(=O)c4ccccc4C3=O)cc2OC)c([N+](=O)[O-])c1 [Example 35, 4-[4-(1,3-Dioxo-indan-2-ylidenemethyl)-2-methoxy-phenoxy]-3-nitro-benzoic acid methyl ester]	0.52 µM
CCN1C(=O)/C(=C\c2ccc(Oc3ccc(C(F)(F)F)cc3[N+](=O)[O-])c(OC)c2)SC1=S [Example 36, 3-Ethyl-5-[3-methoxy-4-(2-nitro-4-trifluoromethyl-phenoxy)-benzylidene]-2-thioxo-thiazolidin-4-one]	20.3 µM
COc1cc(/C=C2\SC(=O)NC2=O)ccc1OCc1ccc(F)cc1Cl [Example 37, 5-[4-(2—Chloro-4-fluoro-benzyloxy)-3-methoxy-benzylidene]-thiazolidine-2,4-dione]	0.414 µM
COc1cc(/C=C2\SC(=O)NC2=O)ccc1OCc1cccc(F)c1 [Example 38, 5-[4-(3-Fluoro-benzyloxy)-3-methoxy-benzylidene]-thiazolidine-2,4-dione]	3.18 µM
COc1cc(C=C2C(=O)c3ccccc3C2=O)ccc1OCc1cccc(F)c1 [Example 40, 2-[4-(3-Fluoro-benzyloxy)-3-methoxy-benzylidene]-indan-1,3-dione]	17.7 µM
